Our source for the IC50, inhibition and GI50 values is patent publication US8481525B2, “Kinase inhibitors and method of treating cancer with same” (University of Health Network, priority 2009, dated 2013).

Usually IC50 stands for the point on the concentration scale where inhibition reaches its midpoint. In general, inhibition refers to how much of the control response was suppressed. What is called GI50 is the concentration giving 50% growth inhibition.

Where two headings read alike, the source gives them in different places.

Test [1] concerns the target T1, human PLK4 (Homo sapiens, UniProt O00444).
T1 construct: amino terminal GST fusion of residues 1-391 of human PLK4; made in house; host or cells: E. coli
T1 sequence (O00444 1-391): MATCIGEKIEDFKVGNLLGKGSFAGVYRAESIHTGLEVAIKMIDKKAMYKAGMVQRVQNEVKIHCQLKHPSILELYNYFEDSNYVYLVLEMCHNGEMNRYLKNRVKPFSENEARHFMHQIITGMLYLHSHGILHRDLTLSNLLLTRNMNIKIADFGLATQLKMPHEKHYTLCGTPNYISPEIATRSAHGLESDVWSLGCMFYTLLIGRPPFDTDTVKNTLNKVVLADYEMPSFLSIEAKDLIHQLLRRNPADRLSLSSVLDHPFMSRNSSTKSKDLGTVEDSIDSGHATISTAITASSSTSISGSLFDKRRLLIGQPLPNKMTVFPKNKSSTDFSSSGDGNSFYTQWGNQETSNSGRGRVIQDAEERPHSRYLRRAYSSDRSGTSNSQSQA
The experiment in a line: PLK4 Inhibition Assay (indirect ELISA). In kind it is biochemical. As for the experimental part:
The protein was purified from clarified cell extracts after induction at 15° C. overnight using glutathione sepharose, gel permeation chromatography, and ion exchange (Resource Q). The resulting protein was dephosphorylated with lambda phosphatase (NEB cat# P0753), and resolved from the phosphatase using gluthione sepharose. The dephosphorylated GST-PLK4 was stored in aliquots at −80° C. until use.
PLK4 activity was measured using an indirect ELISA detection system. […] The colourimetric reaction was allowed to continue for 5 minutes, followed by addition of stop solution (0.5 N sulphuric acid), and quantified by detection at 450 nm with either a monochromatic or filter based plate reader (Molecular Devices M5 or Beckman DTX880, respectively).
Compounds were pre-incubated in the presence of enzyme for 15 minutes prior to addition of ATP and the activity remaining quantified using the above described activity assay. […] The IC50 value was determined using a non-linear 4 point logistic curve fit (XLfit4, IDBS) with the formula; (A+(B/(1+((x/C){grave over ( )}D)))), where A=background value, B=range, C=inflection point, D=curve fit parameter.
For orientation: In an ELISA, binding on a coated surface is turned into a signal by an enzyme label.

The target in test [2] is T2, Aurora A (Homo sapiens, UniProt O14965).
T2 construct: purchased Invitrogen PV3612
T2 sequence (O14965 1-403): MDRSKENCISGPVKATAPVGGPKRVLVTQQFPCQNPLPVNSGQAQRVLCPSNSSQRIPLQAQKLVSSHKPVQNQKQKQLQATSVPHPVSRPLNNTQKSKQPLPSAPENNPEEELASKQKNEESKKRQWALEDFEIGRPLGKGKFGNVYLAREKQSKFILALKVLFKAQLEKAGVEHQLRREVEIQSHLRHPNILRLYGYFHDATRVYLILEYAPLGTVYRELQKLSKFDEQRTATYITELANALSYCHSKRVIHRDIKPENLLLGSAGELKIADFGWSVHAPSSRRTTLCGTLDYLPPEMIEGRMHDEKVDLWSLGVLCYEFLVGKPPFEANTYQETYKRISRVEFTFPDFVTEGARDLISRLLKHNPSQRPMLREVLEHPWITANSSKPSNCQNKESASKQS
The experiment in a line: Aurora A Inhibition Assay (Z-Lyte). In kind it is biochemical. Particulars: 1 μM compound; 20 μM ATP; read-out: Aurora A relative inhibition percentage at a dose of 1 μM. As for the experimental part: Aurora A inhibition was determined using the Z-Lyte assay kit from Invitrogen. The assay was performed using the recommended manufacturer's instructions with 20 μM ATP and 12 nM Aurora A (Invitrogen cat # PV3612). The % inhibition values were determined according to the manufacturer's directions and IC50 values were obtained using a non-linear 4 point logistic curve fit (XLfit4, IDBS)

For test [3], the system named is SW620 colon cancer cell line. The experiment in a line: Cell growth inhibition, Sulforhodamine B assay (SRB). Type of test: cell-based. Particulars: Homo sapiens, SW-620, 120 h, read-out: Cell Line GI50 Range SW-620. As for the experimental part: (§1) The cells were cultured for 5 days before the Sulforhodamine B assay (SRB) was performed to determine the compound's cell growth inhibition activity.
(§2) Sulforhodamine B (purchased from Sigma, Oakville, ON, Canada) is a water-soluble dye that binds to the basic amino acids of the cellular proteins. Thus, colorimetric measurement of the bound dye provides an estimate of the total protein mass that is related to the cell number. the cells are fixed in situ by gently aspirating off the culture media and adding 50 μl ice cold 10% Trichloroacetic Acid (TCA) per well and incubate at 4° C. for 30-60 min, The plates are washed with water five times and allowed to air dry for 5 min. […] Following staining, plates are washed four times with 1% acetic acid to remove unbound dye and then allowed to air dry for 5 min. […] Absorbance is read at 570 nm.
(§3) The percentage (%) of relative growth inhibition was calculated by comparing to DMSO treated only cells (100%). GI50's were determined for compounds with cytotoxic activity. The GI50 was calculated using GraphPad PRISM software (GraphPad Software, Inc., San Diego, Calif., USA).
In general terms: The SRB assay estimates cell density from bound dye.

In test [4] the test system is HCC1954 basal breast cancer cell line. The test is described as above. Type of test: cell-based. Conditions: Homo sapiens, 5 days culture, SRB. As for the experimental part:
as §1, §2, §3

Test [5] relates to A549 lung cancer cell line. Described as above. Type of test: cell-based. Particulars: Homo sapiens, read-out: Cell Line GI50 Range A-549. As for the experimental part:
as §1, §2, §3

Test [6] deals with MCF-7 luminal breast cancer cell line. Described as above. In kind it is cell-based. Conditions: Homo sapiens, MCF7, 120 h, read-out: Cell Line GI50 Range MCF-7. As for the experimental part:
as §1, §2, §3

For test [7], the system named is MDA-MB-468 basal breast cancer cell line. The description is as above. Type of test: cell-based. Conditions: Homo sapiens, 5 days culture, SRB. As for the experimental part:
as §1, §2, §3

The target in test [8] is T3, Aurora B (Homo sapiens, UniProt Q96GD4).
T3 construct: purchased Invitrogen PV3970
The experiment in a line: Aurora B Inhibition Assay (Z-Lyte). Particulars: 128 μM ATP; read-out: Aurora B IC50 Ranges. In kind it is biochemical. As for the experimental part: Aurora B inhibition was determined using the Z-Lyte assay kit from Invitrogen. […] The % inhibition values were determined according to the manufacturer's directions and IC50 values were obtained using a non-linear 4 point logistic curve fit (XLfit4, IDBS)

[9] abbreviates: 15 μM ATP, read-out: PLK4 IC50 Ranges.
The mark [10] stands for this setting: HCC1954, 120 h, read-out: Cell Line GI50 Range HCC-1954, HCC1954 basal breast cancer cell line.
Setting [11] is: MDA-MB-468, 120 h, read-out: Cell Line GI50 Range MDA-MB-468, MDA-MB-468 basal breast cancer cell line.
Setting [12] is: SW620 colon cancer cell line, 5 days culture, SRB.
Where [13] appears, read: HCC1954, 120 h, HCC1954 basal breast cancer cell line, read-out: Cell Line GI50 Range HCC-1954.
Where [14] appears, read: 120 h, A549 lung cancer cell line, 5 days culture, SRB.
The mark [15] stands for this setting: MCF-7 luminal breast cancer cell line, 5 days culture, SRB.
Where [16] appears, read: 120 h, MDA-MB-468 basal breast cancer cell line, read-out: Cell Line GI50 Range MDA-MB-468.
Where [17] appears, read: 120 h, HCC1954 basal breast cancer cell line, read-out: Cell Line GI50 Range HCC-1954.

T3 sequence (Q96GD4 whole entry): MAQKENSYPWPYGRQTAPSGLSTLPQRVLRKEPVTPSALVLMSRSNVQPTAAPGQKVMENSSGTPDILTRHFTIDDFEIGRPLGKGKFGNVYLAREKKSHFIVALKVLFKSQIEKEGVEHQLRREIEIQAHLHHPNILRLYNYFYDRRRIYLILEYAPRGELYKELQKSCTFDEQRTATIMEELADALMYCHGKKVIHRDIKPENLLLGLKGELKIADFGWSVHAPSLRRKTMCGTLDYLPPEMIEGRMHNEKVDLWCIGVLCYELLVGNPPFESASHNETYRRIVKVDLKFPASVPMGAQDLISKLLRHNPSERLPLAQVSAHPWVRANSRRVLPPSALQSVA

In the case of `CN1CCN(c2ccc(-c3n[nH]c4cc([C@@H]5C[C@@]56C(=O)Nc5ccc(C(F)(F)F)cc56)ccc34)cc2)CC1` (racemic) [Example A170, (1R*,2S*)-2-(3-(4-(4-methylpiperazin-1-yl)phenyl)-1H-indazol-6-yl)-5′-(trifluoromethyl)spiro[cyclopropane-1,3′-indolin]-2′-one 2,2,2-trifluoroacetate], the IC50 in test [1] (setting [9]) was in the range of 0.1 to 1 µM.
On to `COc1ccc2c(c1)[C@]1(C[C@H]1c1ccc3c(-c4ccc(N5CCNCC5)cc4)n[nH]c3c1)C(=O)N2` [Example A49, (1R,2S)-5′-methoxy-2-(3-(4-(piperazin-1-yl)phenyl)-1H-indazol-6-yl)spiro[cyclopropane-1,3′-indolin]-2′-oneone 2,2,2-trifluoroacetate], for which the inhibition at 1 µM in test [2] is below 50%. Further, the GI50 is 1 to 10 µM in test [3]; 1 to 10 µM in test [4] (setting [10]); below 0.1 µM in test [5] (A549, 120 h); below 0.1 µM in test [6]; below 0.1 µM in test [7] (setting [11]). Also, the concentration for half-maximal inhibition (IC50) in test [1] and in test [8] was below 0.1 µM each time.
The compound `O=C1Nc2ccccc2[C@]12C[C@H]2c1ccc2c(I)n[nH]c2c1` (relative stereo) [Example A9, (1R*,2S*)-2-(3-iodo-1H-indazol-6-yl)spiro[cyclopropane-1,3′-indolin]-2′-one] returned a 50% inhibitory concentration (IC50) in test [1] of 0.1 to 1 µM.
As to `COc1ccc2c(c1)[C@@]1(C[C@@H]1c1ccc3c(-c4ccc(N5CCC(N(C)C)CC5)cc4)n[nH]c3c1)C(=O)N2` (racemic) [Example A119, (1R*,2S*)-2-(3-(4-(4-(dimethlamino)piperidin-yl)phenyl)-1H-indazol-6-yl)-5′-methoxyspiro[cyclopropane-1,3′-indolin]-2′-one 2,2,2-trifluoroacetate], the concentration for 50% growth inhibition (GI50) in test [3] (setting [12]) is below 0.1 µM; in test [4] (setting [13]) it was 0.1 to 1 µM; in test [5] (setting [14]), below 0.1 µM; in test [6] (setting [15]), below 0.1 µM; in test [7] (setting [16]), below 0.1 µM. Further, the IC50 in test [1] (setting [9]) and in test [8] was below 0.1 µM throughout.
On to `COc1ccc2c(c1)[C@@]1(C[C@@H]1c1ccc3c(-c4ccc(N5CCNCC5)nc4)n[nH]c3c1)C(=O)N2` (racemic) [Example A21, 4-(5-(6-((1R*,2S*)-5′-Methoxy-2′-oxospiro[cyclopropane-1,3′-indoline]-2-yl)-1H-indazol-3-yl)pyridinium-2-yl)piperazine bis(2,2,2-trifluoroacetate)], for which the 50% growth inhibitory concentration (GI50) in test [3] (setting [12]) was 1 to 10 µM; in test [4] (setting [17]), above 10 µM; in test [5] (setting [14]) it was 1 to 10 µM; in test [6] (setting [15]), below 0.1 µM; in test [7] (setting [16]), 0.1 to 1 µM. The IC50 in test [1] (setting [9]) and in test [8] was below 0.1 µM each time.
As for `COc1ccc2c(c1)[C@@]1(C[C@@H]1c1ccc3c(-c4cccc(CCO)c4)n[nH]c3c1)C(=O)N2` (racemic) [Example A46, (1R*,2S*)-2-(3-(3-(2-hydroxethyl)phenyl)-1H-indazol-6-yl)-5′-methoxy spiro[cyclopropane-1,3′-indolin]-2′-one], the GI50 is above 10 µM in test [3] (setting [12]); above 10 µM in test [4] (setting [17]); 1 to 10 µM in test [5] (setting [14]); 1 to 10 µM in test [6] (setting [15]); 1 to 10 µM in test [7] (setting [16]). The IC50 in test [1] (setting [9]) was below 0.1 µM.
Turning to `COc1ccc2c(c1)[C@@]1(C[C@@H]1c1ccc3c(/C=C/c4csc(CN(C)C)c4)n[nH]c3c1)C(=O)N2` (racemic) [Example A181, (1R*,2S*)-2-(3-((E)-2-(5-((dimethylamino)methyl)thiophen-3-yl)vinyl)-1H-indazol-6-yl)-5′-methoxyspiro[cyclopropane-1,3′-indolin]-2′-one 2,2,2-trifluoro acetate], the concentration for 50% growth inhibition (GI50) in test [3] (setting [12]) was below 0.1 µM; in test [4] (setting [13]) it was 0.1 to 1 µM; in test [5] (setting [14]), below 0.1 µM; in test [6] (setting [15]) it was below 0.1 µM; in test [7] (setting [16]), below 0.1 µM. Moreover, the 50% inhibitory concentration (IC50) in test [1] (setting [9]) and in test [8] was below 0.1 µM each time.
Regarding `COc1ccc2c(c1)[C@@]1(C[C@@H]1c1ccc3c(-c4ccc(N5CCNCC5)cc4)n[nH]c3c1)C(=O)N2` (racemic) [Example A48, (1R*,2S*)-5′-methoxy-2-(3-(4-(piperazin-1-yl)phenyl)-1H-indazol-6-yl)spiro[cyclopropane-1,3′-indolin]-2′-one 2,2,2-trifluoroacetate], in test [2], the inhibition at 1 µM is below 50%. The GI50 in test [3] was 1 to 10 µM; in test [4] (setting [10]) it was 1 to 10 µM; in test [5] (A549, 120 h), below 0.1 µM; in test [6], below 0.1 µM; in test [7] (setting [11]) it was below 0.1 µM. For the same compound, the 50% inhibitory concentration (IC50) in test [1] and in test [8] was below 0.1 µM in each case.
Regarding `COc1ccc2c(c1)[C@]1(C[C@H]1c1ccc3c(/C=C/c4cc(F)c(CN(C)C)c(F)c4)n[nH]c3c1)C(=O)N2` (relative stereo) [Example A215, (1R*,2 S*)-(E)-2-(3-(4-((dimethylamino)methyl)-3,5-difluorostyryl)-1H-indazol-6-yl)-5′-methoxyspiro[cyclopropane-1,3′-indolin]-2′-one 2,2,2-trifluoro acetate], the concentration for half-maximal inhibition (IC50) in test [1] (setting [9]) and in test [8] was below 0.1 µM throughout.
